The target of this assay is T1, β-glucuronidase (GUS) (Escherichia coli, UniProt P05804).
T1 construct: gene uidA
Nature of the assay: fluorescent 4-MUG hydrolysis assay with purchased E. coli GUS; Lineweaver-Burk plots. The assay is classed as biochemical.

T1 sequence (P05804 whole entry): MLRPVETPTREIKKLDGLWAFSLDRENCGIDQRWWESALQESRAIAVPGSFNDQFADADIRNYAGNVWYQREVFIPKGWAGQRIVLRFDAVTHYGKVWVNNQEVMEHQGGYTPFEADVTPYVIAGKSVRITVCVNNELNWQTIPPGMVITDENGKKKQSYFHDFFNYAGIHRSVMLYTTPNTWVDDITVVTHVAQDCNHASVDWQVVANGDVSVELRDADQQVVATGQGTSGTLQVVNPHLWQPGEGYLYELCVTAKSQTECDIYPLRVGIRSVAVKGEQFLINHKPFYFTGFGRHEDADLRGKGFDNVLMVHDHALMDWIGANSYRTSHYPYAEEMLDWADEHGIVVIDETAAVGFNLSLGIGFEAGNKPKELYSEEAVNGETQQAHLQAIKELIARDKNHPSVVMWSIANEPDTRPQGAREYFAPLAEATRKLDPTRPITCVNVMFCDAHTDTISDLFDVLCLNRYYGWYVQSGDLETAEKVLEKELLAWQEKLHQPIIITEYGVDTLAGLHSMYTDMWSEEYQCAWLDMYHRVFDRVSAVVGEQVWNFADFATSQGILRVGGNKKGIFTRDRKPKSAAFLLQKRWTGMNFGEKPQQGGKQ

Broadly, the IC50 is the point on the concentration scale where inhibition reaches its midpoint. Low values mean greater potency, high ones weaker potency. Regarding `COc1ccc2cc3[n+](cc2c1OC)CCc1cc2c(cc1-3)OCO2` [Berberine, 9,10-dimethoxy-5,6-dihydro-(1,3)dioxolo (4,5-g)isoquinolino (3,2-a)isoquinolin-7-ium], the IC50 is 54 ± 5.1 µM.

Source of the values: PMC8593678, “Berberine Improves Irinotecan-Induced Intestinal Mucositis Without Impairing the Anti-colorectal Cancer Efficacy of Irinotecan by Inhibiting Bacterial β-glucuronidase” (Frontiers in Pharmacology, 2021).
